Results on 3 molecules are retold here after US9303025B2, “Apoptosis-inducing agents for the treatment of cancer and immune and autoimmune diseases” (AbbVie Inc., priority 2008, dated 2016).

For this experiment, the target named is GST-Bcl-2 (Homo sapiens (Human), UniProt P10415). As to the kind of experiment: Time Resolved-Fluorescence Resonance Energy Transfer (TR-FRET) Bcl-2 binding assay. Conditions: GST-Bcl-2 1 nM, F-Bak peptide probe 100 nM, Tb-anti-GST antibody 1 nM; 3 hours at room temperature; Ki by Wang's equation. (TR-FRET usually uses a lanthanide donor and a delayed reading to cut background.)
Chain of GST-Bcl-2 (P10415 whole entry): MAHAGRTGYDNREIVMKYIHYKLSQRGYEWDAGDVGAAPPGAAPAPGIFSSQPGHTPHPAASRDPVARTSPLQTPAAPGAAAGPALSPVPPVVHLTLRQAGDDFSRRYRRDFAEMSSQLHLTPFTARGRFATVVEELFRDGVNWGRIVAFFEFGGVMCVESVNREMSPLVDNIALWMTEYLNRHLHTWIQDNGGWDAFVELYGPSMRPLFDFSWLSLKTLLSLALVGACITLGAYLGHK

Procedure: Tb-anti-GST antibody was purchased from Invitrogen (Catalog No. PV4216).
Representative compounds were serially diluted in dimethyl sulfoxide (DMSO) starting at 50 μM (2× starting concentration; 10% DMSO) and 10 μL were transferred into a 384-well plate. The samples are then mixed on a shaker for 1 minute and incubated for an additional 3 hours at room temperature. For each assay, the probed antibody and protein/probe/antibody were included on each assay plate as negative and positive controls, respectively. Fluorescence was measured on the Envision (Perkin Elmer) using a 340/35 nm excitation filter and 520/525 (F-Bak peptide) and 495/510 nm (Tb-labeled anti-Histidine antibody) emission filters.
The samples were then mixed on a shaker for 1 minute and incubated for an additional 3 hours at room temperature. For each assay, the probe/antibody and protein/probe/antibody were included on each assay plate as negative and positive controls, respectively. Fluorescence was measured on the Envision (Perkin Elmer) using a 340/35 nm excitation filter and 520/525 (F-Bak peptide) and 495/510 nm (Tb-labeled anti-Histidine antibody) emission filters.
The inhibition constant (Ki) is the dissociation constant of an enzyme-inhibitor complex or a protein/small molecule complex, wherein the small molecule is inhibiting binding of one protein to another protein. So a large Ki value indicates a low binding affinity and a small Ki value indicates a high binding affinity.

As usually defined, the Ki is a measure of affinity in units of concentration, obtained from inhibition or displacement. A high value points to weaker binding. As for `CC1(C)CCC(CN2CCN(c3ccc(C(=O)NS(=O)(=O)c4ccc(NCC5CCOCC5)c([N+](=O)[O-])c4)c(Oc4cccc5c4CC(=O)N5)c3)CC2)=C(c2ccc(Cl)cc2)C1` [Example 268, 4-(4-{[2-(4-chlorophenyl)-4,4-dimethylcyclohex-1-en-1-yl]methyl}piperazin-1-yl)-N-({3-nitro-4-[(tetrahydro-2H-pyran-4-ylmethyl)amino]phenyl}sulfonyl)-2-[(2-oxo-2,3-dihydro-1H-indol-4-yl)oxy]benzamide], the Ki came out at 0.042 nM. In the case of “4-(4-{[2-(4-chlorophenyl)-4,4-dimethylcyclohex-1-en-1-yl]methyl}piperazin-1-yl)-N-[(4-{[3-(dimethylamino)propyl]amino}-3-nitrophenyl]-2-(3-fluorophenoxy)benzamide [Example 138]” it was 0.016 nM; in that of `CC1(C)CCC(CN2CCN(c3ccc(C(=O)NS(=O)(=O)c4ccc(NCCCN5CCCC5)c([N+](=O)[O-])c4)c(Oc4cccc(Cl)c4F)c3)CC2)=C(c2ccc(Cl)cc2)C1` [Example 149, 2-(3-chloro-2-fluorophenoxy)-4-(4-{[2-(4-chlorophenyl)-4,4-dimethylcyclohex-1-en-1-yl]methyl}piperazin-1-yl)-N-({3-nitro-4-[(3-pyrrolidin-1-ylpropyl)amino]phenyl}sulfonyl)benzamide], 0.03 nM.
